Measurements from ChEMBL document CHEMBL5356985, “Development of trisubstituted thiophene-3-arboxamide selenide derivatives as novel EGFR kinase inhibitors with cytotoxic activity” (RSC Med Chem, 2023).
In brackets after ≈: the same amount, converted by molar mass.

Experiments:
A549 [1] = assay: Antiproliferative activity against human A549 cells assessed as cell growth inhibition at 20 uM incubated for 48 hrs by MTT assay; type: functional
HCT-116 [2] = assay: Antiproliferative activity against human HCT-116 cells assessed as cell growth inhibition at 20 uM incubated for 48 hrs by MTT assay; type: functional
MCF7 [3] = assay: Antiproliferative activity against human MCF7 cells assessed as cell growth inhibition at 20 uM incubated for 48 hrs by MTT assay; type: functional
SK-MEL-28 [4] = assay: Antiproliferative activity against human SK-MEL-28 cells assessed as cell growth inhibition at 20 uM incubated for 48 hrs by MTT assay; type: functional
A549 [5] = assay: Antiproliferative activity against human A549 cells assessed as cell growth inhibition incubated for 48 hrs by MTT assay; type: functional, cell-based; conditions: A549, 48 h
HCT-116 [6] = assay: Antiproliferative activity against human HCT-116 cells assessed as cell growth inhibition incubated for 48 hrs by MTT assay; type: functional, cell-based; conditions: HCT-116, 48 h
MCF7 [7] = assay: Antiproliferative activity against human MCF7 cells assessed as cell growth inhibition incubated for 48 hrs by MTT assay; type: functional, cell-based; conditions: MCF7, 48 h
SK-MEL-28 [8] = assay: Antiproliferative activity against human SK-MEL-28 cells assessed as cell growth inhibition incubated for 48 hrs by MTT assay; type: functional, cell-based; conditions: SK-MEL-28, 48 h
A2780S = assay: Antiproliferative activity against human A2780S cells assessed as reduction in cell viability incubated for 24 hrs by MTT assay; type: functional, cell-based
SK-OV-3 = assay: Antiproliferative activity against human SK-OV-3 cells assessed as reduction in cell viability incubated for 24 hrs by MTT assay; type: functional, cell-based; conditions: SK-OV-3, 24 h
[9] = Solubility in human plasma at pH 7.2 to 7.8 incubated for 4 hrs by HPLC analysis; type: ADME, cell-free
MDA-MB-231 = assay: Antiproliferative activity against human MDA-MB-231 cells assessed as reduction in cell viability incubated for 24 hrs by MTT assay; type: functional, cell-based; conditions: MDA-MB-231, 24 h
MCF7 [10] = assay: Antiproliferative activity against human MCF7 cells assessed as reduction in cell viability incubated for 24 hrs by MTT assay; type: functional, cell-based; conditions: MCF7, 24 h
A549 [11] = assay: Antiproliferative activity against human A549 cells assessed as reduction in cell viability; type: functional, cell-based
[12] = Cytotoxicity against human L02 cells assessed as reduction in cell viability; type: toxicity, cell-based
[13] = Selectivity index, ratio of IC50 for cytotoxicity against human L02 cells to IC50 for antiproliferative activity against human A549 cells; type: toxicity, cell-based; conditions: L02 cells and A549 cells, read-out: Ratio IC50
[14] = molecular target: T1, Epidermal growth factor receptor (Homo sapiens, UniProt P00533); assay: Inhibition of EGFR (unknown origin)
T1 sequence (P00533 whole entry): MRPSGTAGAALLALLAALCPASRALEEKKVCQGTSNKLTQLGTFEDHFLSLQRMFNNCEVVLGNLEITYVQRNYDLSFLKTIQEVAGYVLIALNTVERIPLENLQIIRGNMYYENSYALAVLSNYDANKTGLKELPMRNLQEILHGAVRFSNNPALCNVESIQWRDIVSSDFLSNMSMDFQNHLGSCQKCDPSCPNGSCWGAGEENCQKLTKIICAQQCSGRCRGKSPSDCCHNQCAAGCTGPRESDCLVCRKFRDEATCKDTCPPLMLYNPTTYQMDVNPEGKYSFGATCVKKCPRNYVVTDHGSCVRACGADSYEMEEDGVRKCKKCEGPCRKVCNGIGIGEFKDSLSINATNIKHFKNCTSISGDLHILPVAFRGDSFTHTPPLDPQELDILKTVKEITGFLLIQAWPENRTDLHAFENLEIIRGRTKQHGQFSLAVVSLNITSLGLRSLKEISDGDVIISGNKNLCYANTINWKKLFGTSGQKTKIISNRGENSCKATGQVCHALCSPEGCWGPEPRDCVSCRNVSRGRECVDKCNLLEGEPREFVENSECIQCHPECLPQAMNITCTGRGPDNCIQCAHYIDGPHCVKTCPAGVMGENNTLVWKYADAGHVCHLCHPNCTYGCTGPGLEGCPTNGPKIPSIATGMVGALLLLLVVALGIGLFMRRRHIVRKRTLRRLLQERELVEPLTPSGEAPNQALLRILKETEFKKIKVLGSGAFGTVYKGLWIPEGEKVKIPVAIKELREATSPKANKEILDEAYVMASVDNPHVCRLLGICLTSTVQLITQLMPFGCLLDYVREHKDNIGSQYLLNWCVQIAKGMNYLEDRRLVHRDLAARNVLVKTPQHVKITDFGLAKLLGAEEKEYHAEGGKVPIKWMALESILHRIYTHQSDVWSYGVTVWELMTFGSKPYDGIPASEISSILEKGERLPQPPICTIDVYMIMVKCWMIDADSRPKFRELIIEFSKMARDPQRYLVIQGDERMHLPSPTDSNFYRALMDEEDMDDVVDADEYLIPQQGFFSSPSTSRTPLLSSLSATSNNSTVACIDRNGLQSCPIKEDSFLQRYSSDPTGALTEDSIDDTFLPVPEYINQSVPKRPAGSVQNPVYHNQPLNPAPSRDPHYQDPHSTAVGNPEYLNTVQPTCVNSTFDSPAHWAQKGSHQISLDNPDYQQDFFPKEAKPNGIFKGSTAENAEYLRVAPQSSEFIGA

[15] = molecular target: Epidermal growth factor receptor (Homo sapiens, UniProt P00533, L858R/T790M); assay: Inhibition of EGFR T790M/L858R mutant (unknown origin)
Chain of Epidermal growth factor receptor (Homo sapiens, UniProt P00533, L858R/T790M) (P00533 25-1210 T790M/L858R limits assumed): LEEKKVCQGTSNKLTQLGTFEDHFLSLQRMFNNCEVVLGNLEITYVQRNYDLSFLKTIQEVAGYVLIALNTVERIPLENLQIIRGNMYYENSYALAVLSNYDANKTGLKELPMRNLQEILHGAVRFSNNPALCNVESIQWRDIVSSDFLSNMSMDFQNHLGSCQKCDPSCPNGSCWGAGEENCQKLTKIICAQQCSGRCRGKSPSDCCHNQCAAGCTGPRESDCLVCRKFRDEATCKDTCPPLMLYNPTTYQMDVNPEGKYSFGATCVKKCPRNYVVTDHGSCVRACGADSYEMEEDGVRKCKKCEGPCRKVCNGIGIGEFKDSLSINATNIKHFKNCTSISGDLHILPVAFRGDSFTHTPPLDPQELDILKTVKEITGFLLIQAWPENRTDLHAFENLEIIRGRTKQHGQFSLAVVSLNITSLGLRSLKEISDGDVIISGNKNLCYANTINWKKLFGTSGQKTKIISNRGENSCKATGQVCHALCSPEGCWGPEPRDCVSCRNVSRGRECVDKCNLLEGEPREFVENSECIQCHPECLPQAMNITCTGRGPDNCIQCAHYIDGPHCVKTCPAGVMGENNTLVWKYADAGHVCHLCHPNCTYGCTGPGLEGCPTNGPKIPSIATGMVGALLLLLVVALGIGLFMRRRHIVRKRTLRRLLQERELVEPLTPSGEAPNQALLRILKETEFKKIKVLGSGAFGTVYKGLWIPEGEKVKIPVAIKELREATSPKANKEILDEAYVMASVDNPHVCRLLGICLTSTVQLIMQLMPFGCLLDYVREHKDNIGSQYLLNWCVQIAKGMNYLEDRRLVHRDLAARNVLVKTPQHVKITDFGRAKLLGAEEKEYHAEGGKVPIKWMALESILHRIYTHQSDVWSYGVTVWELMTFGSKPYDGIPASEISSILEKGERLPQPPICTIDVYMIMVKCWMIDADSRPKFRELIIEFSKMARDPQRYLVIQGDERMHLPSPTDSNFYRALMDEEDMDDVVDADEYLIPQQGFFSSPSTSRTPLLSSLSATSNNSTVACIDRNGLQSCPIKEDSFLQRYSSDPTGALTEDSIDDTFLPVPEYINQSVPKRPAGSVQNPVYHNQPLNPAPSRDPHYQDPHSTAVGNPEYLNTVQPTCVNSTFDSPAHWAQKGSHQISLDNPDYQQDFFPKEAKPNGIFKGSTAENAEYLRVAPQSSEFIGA

[16] = Cytotoxicity against human HaCaT cells assessed as cell growth inhibition incubated for 48 hrs by MTT assay; type: toxicity, cell-based
[17] = molecular target: T1, Epidermal growth factor receptor; assay: Inhibition of EGFR (unknown origin) using poly E4Y1 and ATP as substrate incubated for 60 mins by ADP-Glo kinase assay

Row | SMILES | inhibition at 20 µM (A549 [1]) [%] | inhibition at 20 µM (HCT-116 [2]) [%] | inhibition at 20 µM (MCF7 [3]) [%] | inhibition at 20 µM (SK-MEL-28 [4]) [%] | IC50 (A549 [5]) [µM] | IC50 (HCT-116 [6]) [µM] | IC50 (MCF7 [7]) [µM] | IC50 (SK-MEL-28 [8]) [µM] | other results
1 | Cc1sc([Se]c2sc(C)c(-c3cccc(Br)c3)c2C(=O)NC(Cc2ccccc2)C(=O)N2CCCC2)c(C(=O)NC(Cc2ccccc2)C(=O)N2CCCC2)c1-c1cccc(Br)c1 (stereo not drawn) | 14 | 9 | 26 | 18 | – | – | – | – | –
2 | Cc1sc(Br)c(C(=O)NC(CO)C(=O)N2CCCC2)c1-c1cccc(Cl)c1 (stereo not drawn) | – | – | – | – | 33.9 | 34.5 | 36.9 | 57.1 | –
3 | COc1ccc(/C=C/C(=O)c2ccc(OC)c3c2OC(C)(C)C=C3)cc1O | – | – | – | – | – | – | – | – | IC50 (A2780S): 0.42 µM; IC50 (SK-OV-3): 0.42 µM; solubility at 4 h [9]: 146 µg/mL (≈ 0.398 mM); IC50 (MDA-MB-231): 0.42 µM; IC50 (MCF7 [10]): 0.42 µM
4 | Cc1sc(Br)c(C(=O)NCC(=O)N2CCCC2)c1-c1cccc(F)c1 | – | – | – | – | 42.6 | 39 | 43.7 | 40.1 | –
5 | Cc1sc(Br)c(C(=O)NC(C)C(=O)N2CCCC2)c1-c1cccc(F)c1 (stereo not drawn) | – | – | – | – | 44.6 | 31 | 47.7 | 49.4 | –
6 | Cc1sc([Se]c2sc(C)c(-c3cccc(Cl)c3)c2C(=O)NC(C)C(=O)N2CCCC2)c(C(=O)NC(C)C(=O)N2CCCC2)c1-c1cccc(Cl)c1 (stereo not drawn) | 38 | 70 | 90 | 13 | – | – | – | – | –
7 | Cc1sc([Se]c2sc(C)c(-c3cccc(F)c3)c2C(=O)NC(CO)C(=O)N2CCCC2)c(C(=O)NC(CO)C(=O)N2CCCC2)c1-c1cccc(F)c1 (stereo not drawn) | 27 | 61 | 85 | 25 | – | – | – | – | –
8 | Cc1sc([Se]c2sc(C)c(-c3cccc(F)c3)c2C(=O)NC(Cc2ccccc2)C(=O)N2CCCC2)c(C(=O)NC(Cc2ccccc2)C(=O)N2CCCC2)c1-c1cccc(F)c1 (stereo not drawn) | 14 | 10 | 3 | < 10 | – | – | – | – | –
9 | COc1cc(C2c3cc4c(cc3C(OC3OC5COC(C)OC5C(O)C3O)C3COC(=O)C23)OCO4)cc(OC)c1O (stereo not drawn) | – | – | – | – | – | – | – | – | IC50 (A549 [11]): 9.4 µM; IC50 [12]: 3.5 µM; selectivity ratio [13]: 0.5
10 | Cc1sc([Se]c2sc(C)c(-c3cccc(Br)c3)c2C(=O)NC(C(=O)N2CCCC2)C(C)C)c(C(=O)NC(C(=O)N2CCCC2)C(C)C)c1-c1cccc(Br)c1 (stereo not drawn) | 44 | 51 | 72 | 34 | – | – | – | – | –
11 | O=c1[nH]cc(F)c(=O)[nH]1 [FLUOROURACIL] | – | – | – | – | 18.6 | 16.7 | 15.2 | 10.2 | –
12 | Cc1sc([Se]c2sc(C)c(-c3ccccc3)c2C(=O)NCC(=O)N2CCCC2)c(C(=O)NCC(=O)N2CCCC2)c1-c1ccccc1 | 45 | 25 | 89 | < 10 | – | – | – | – | –
13 | O=C(N/N=C/c1cnc(N2CCCC2)nc1)Nc1cc2c(Nc3ccc(F)c(Cl)c3)ncnc2cc1O[C@@H]1CCOC1 | – | – | – | – | – | – | – | – | IC50 [14]: 0.0063 µM; IC50 [15]: 0.0084 µM
14 | Cc1sc([Se]c2sc(C)c(-c3cccc(Cl)c3)c2C(=O)NC(Cc2ccccc2)C(=O)N2CCCC2)c(C(=O)NC(Cc2ccccc2)C(=O)N2CCCC2)c1-c1cccc(Cl)c1 (stereo not drawn) | 23 | 15 | 13 | 22 | – | – | – | – | –
15 | Cc1sc([Se]c2sc(C)c(-c3cccc(F)c3)c2C(=O)NC(C)C(=O)N2CCCC2)c(C(=O)NC(C)C(=O)N2CCCC2)c1-c1cccc(F)c1 (stereo not drawn) | 77 | 72 | 86 | 62 | 13.2 | 8.11 | 14.4 | 14.3 | IC50 at 48 h [16]: 29.3 µM; IC50 [17]: 0.835 µM
16 | Cc1sc([Se]c2sc(C)c(-c3cccc(Cl)c3)c2C(=O)NC(C(=O)N2CCCC2)C(C)C)c(C(=O)NC(C(=O)N2CCCC2)C(C)C)c1-c1cccc(Cl)c1 (stereo not drawn) | 36 | 47 | 64 | < 10 | – | – | – | – | –
17 | Cc1sc([Se]c2sc(C)c(-c3cccc(Cl)c3)c2C(=O)NC(CO)C(=O)N2CCCC2)c(C(=O)NC(CO)C(=O)N2CCCC2)c1-c1cccc(Cl)c1 (stereo not drawn) | 86 | 75 | 64 | 66 | 15.7 | 6.83 | 11.2 | 13.8 | IC50 at 48 h [16]: 31.8 µM; IC50 [17]: 0.727 µM
18 | Cc1sc([Se]c2sc(C)c(-c3cccc(F)c3)c2C(=O)NC(CC(C)C)C(=O)N2CCCC2)c(C(=O)NC(CC(C)C)C(=O)N2CCCC2)c1-c1cccc(F)c1 (stereo not drawn) | 52 | 57 | 70 | 18 | – | – | – | – | –
19 | Cc1sc([Se]c2sc(C)c(-c3cccc(F)c3)c2C(=O)NC(C(=O)N2CCCC2)C(C)C)c(C(=O)NC(C(=O)N2CCCC2)C(C)C)c1-c1cccc(F)c1 (stereo not drawn) | 35 | 63 | 58 | 36 | – | – | – | – | –
20 | Cc1sc(Br)c(C(=O)NC(C)C(=O)N2CCCC2)c1-c1ccccc1 (stereo not drawn) | – | – | – | – | 40.1 | 37 | 39.2 | 55 | –
21 | COc1ccc(/C=C/C(=O)c2ccc(OC)c3c2OC(C)(C)C=C3)cc1OC(=O)CNC(=O)OC(C)(C)C | – | – | – | – | – | – | – | – | IC50 (A2780S): 0.12 µM; IC50 (SK-OV-3): 0.12 µM; solubility at 4 h [9]: 2980 µg/mL (≈ 5.69 mM); IC50 (MDA-MB-231): 0.12 µM; IC50 (MCF7 [10]): 0.12 µM
22 | Cc1sc([Se]c2sc(C)c(-c3cccc(F)c3)c2C(=O)NCC(=O)N2CCCC2)c(C(=O)NCC(=O)N2CCCC2)c1-c1cccc(F)c1 | 79 | 73 | 88 | 70 | 17.4 | 9.22 | 13.4 | 11.5 | IC50 at 48 h [16]: 24.7 µM
23 | Cc1sc(Br)c(C(=O)NC(CO)C(=O)N2CCCC2)c1-c1cccc(Br)c1 (stereo not drawn) | – | – | – | – | 28.8 | 24.7 | 32.7 | 54.6 | –
24 | Cc1sc([Se]c2sc(C)c(-c3ccccc3)c2C(=O)NC(C)C(=O)N2CCCC2)c(C(=O)NC(C)C(=O)N2CCCC2)c1-c1ccccc1 (stereo not drawn) | 82 | 69 | 90 | 72 | 15 | 8.19 | 15.1 | 10.5 | IC50 at 48 h [16]: 26.4 µM
25 | c1ccc2c(c1)CCN2c1ncnc2cc3c(cc12)NCN3CCN1CCCC1 | – | – | – | – | – | – | – | – | IC50 [14]: 0.032 µM
